Measurements from ChEMBL document CHEMBL1201862, “PubChem BioAssay data set” (2004).
Activity calls are given as the source filed them.

Tests used:
[1] = NIH-3T3 fibroblast cytotoxicity, dose response, cytotoxicity control, cell-based, fluorescence, Alamar Blue, secondary assay (AID 2327); type: functional;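 further: NIH-3T3 mouse fibroblasts cultured with fluconazole at 8 µg/mL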
[2] = NIH3T3 cell viability loss – ATP luminescence, mouse fibroblasts, counter-screen, dose response (AID 2010); type: functional, cell-based;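 further: cells exposed to compound for about 90 hours before reading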
[3] = fluconazole-exposed Candida albicans growth modulators – fluorescence, retest, confirmation (AID 2467); type: functional, cell-based
Saccharomyces cerevisiae = assay: S. cerevisiae Caspase-1/ASC signal blockers IC50, NALP1 inhibitor project selectivity test (AID 488863); type: functional, organism-based
[4] = viability of PTEN-deleted HCT116 cells – cell-based, HCT116 PTEN knockout, dose response (AID 1047); type: functional;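 further: HCT116 colon tumor cells with PTEN knocked out; cells exposed to compound for 60 hours before readout; potency for loss of cell viability measured by luminescence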
[5] = biological target: NACHT, LRR and PYD domains-containing protein 1 (Homo sapiens, UniProt Q9C000); assay: NALP1 inhibitors in yeast, dose response, luminescent (AID 488860); type: functional
[6] = biological target: Heat shock protein HSP 90-alpha (Homo sapiens, UniProt P07900); type: functional, organism-based
[7] = viability of HCT116 lacking mutant beta-catenin – cell-based, human colon tumor, dose response (AID 1045); type: functional;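 further: HCT116 colon tumor cells with beta catenin knocked out; cells exposed to compound for 60 hours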
[8] = Trypanosoma cruzi growth suppression in host cells – NIH3T3 host cells, beta-gal luminescence, confirmation (AID 2044); type: functional, cell-based;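 further: intracellular parasites grown in NIH/3T3 mouse fibroblasts as host cells; luminescent beta-galactosidase reporter signal from transgenic T. cruzi replicating inside host cells; inhibitors lower the luminescence signal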
[9] = viability loss in HeLa cells – cytotoxicity control for MgcRacGAP inhibitor project, dose response (AID 624300); type: functional
[10] = biological target: T1, Rac GTPase-activating protein 1 (Homo sapiens, UniProt Q9H0H5); assay: blockers of MgcRacGAP-driven Rac1 GTP hydrolysis – biochemical, ADP Hunter fluorescence, primary and confirmatory, confirmation (AID 624330); type: functional
T1 sequence (Q9H0H5 whole entry): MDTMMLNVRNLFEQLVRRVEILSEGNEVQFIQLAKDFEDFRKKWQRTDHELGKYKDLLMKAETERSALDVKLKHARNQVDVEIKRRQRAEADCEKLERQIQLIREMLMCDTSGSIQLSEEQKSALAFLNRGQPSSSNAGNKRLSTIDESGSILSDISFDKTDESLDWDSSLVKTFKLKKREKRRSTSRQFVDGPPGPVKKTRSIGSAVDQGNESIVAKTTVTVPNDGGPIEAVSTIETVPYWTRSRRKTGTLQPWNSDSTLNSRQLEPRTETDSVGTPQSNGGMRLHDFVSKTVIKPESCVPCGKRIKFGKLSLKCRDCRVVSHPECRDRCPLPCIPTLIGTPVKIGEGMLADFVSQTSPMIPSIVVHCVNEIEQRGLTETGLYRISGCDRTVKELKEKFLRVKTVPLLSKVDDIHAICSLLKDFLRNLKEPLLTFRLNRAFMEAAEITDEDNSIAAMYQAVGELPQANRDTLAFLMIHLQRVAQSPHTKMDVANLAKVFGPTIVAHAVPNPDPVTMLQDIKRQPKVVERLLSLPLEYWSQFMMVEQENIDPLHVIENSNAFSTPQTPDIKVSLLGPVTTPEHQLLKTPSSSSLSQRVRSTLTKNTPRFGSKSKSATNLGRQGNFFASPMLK

Phosphomannomutase 2 = biological target: T2, Phosphomannomutase 2 (Homo sapiens, UniProt O15305); assay: Counter screen SAR assay for PMM2 inhibitors via a fluorescence intensity assay. [Related pubchem assays (depositor defined):AID1545, AID1574]
T2 sequence (O15305 whole entry): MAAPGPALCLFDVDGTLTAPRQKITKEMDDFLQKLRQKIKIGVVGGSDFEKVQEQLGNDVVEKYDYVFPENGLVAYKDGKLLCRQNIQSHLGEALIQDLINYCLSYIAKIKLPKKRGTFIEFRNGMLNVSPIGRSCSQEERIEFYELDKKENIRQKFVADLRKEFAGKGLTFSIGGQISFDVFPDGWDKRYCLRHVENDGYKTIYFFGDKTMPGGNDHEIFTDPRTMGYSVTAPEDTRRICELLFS

[11] = biological target: T3, Mannose-6-phosphate isomerase (Homo sapiens, UniProt P34949); assay: Confirmation of compounds inhibiting phosphomannose isomerase (PMI) via a fluorescence intensity assay using a high concentration of mannose 6-phosphate. [Related pubchem assays (depositor defined):AID1209, AID1220, AID1545, AID1553, AID1620]
T3 sequence (P34949 whole entry): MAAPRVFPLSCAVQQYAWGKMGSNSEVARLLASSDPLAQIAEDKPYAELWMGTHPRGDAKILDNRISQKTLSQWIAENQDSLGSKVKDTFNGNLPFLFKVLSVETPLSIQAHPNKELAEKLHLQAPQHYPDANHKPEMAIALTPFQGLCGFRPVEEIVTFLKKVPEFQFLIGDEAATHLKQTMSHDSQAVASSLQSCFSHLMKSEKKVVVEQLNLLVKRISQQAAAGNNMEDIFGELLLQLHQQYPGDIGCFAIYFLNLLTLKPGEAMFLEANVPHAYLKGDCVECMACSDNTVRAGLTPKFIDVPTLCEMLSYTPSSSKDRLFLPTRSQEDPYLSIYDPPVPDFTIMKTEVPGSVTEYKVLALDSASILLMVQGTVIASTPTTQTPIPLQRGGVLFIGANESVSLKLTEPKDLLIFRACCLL

[12] = biological target: Phosphoethanolamine/phosphocholine phosphatase (Homo sapiens, UniProt Q8TCT1); assay: SAR assay for compounds that inhibit PHOSPHO1. [Related pubchem assays (depositor defined):AID1545, AID1565, AID1574]
[13] = biological target: T4, Alkaline phosphatase, tissue-nonspecific isozyme (Homo sapiens, UniProt P05186); assay: potency against alkaline phosphatase TNAP – biochemical, luminescent, dose response, SAR follow-up (AID 1056)
T4 sequence (P05186 whole entry): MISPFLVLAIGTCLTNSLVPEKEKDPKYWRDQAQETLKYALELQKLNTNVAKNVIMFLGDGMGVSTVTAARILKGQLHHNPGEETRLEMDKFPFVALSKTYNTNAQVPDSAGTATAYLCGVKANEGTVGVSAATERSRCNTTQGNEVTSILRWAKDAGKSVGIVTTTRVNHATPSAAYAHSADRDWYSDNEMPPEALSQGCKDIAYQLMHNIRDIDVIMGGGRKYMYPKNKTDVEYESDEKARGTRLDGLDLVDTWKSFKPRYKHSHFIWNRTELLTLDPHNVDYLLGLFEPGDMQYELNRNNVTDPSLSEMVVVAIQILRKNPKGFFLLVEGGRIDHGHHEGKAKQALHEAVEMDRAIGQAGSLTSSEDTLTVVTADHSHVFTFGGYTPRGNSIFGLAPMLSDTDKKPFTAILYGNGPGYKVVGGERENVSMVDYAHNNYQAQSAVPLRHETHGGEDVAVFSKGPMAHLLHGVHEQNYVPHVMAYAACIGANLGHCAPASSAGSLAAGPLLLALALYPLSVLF

Beta-galactosidase = Beta-galactosidase (Escherichia coli, UniProt Q8VNN2); assay: detection-enzyme interference by beta-gal modulators – biochemical, E. coli enzyme, set 3, artefact control for CCR6 antagonist project, dose response (AID 504712); type: functional
Nonstructural protein 1 = Nonstructural protein 1 (Influenza A virus, UniProt Q194T2); type: functional, Influenza A virus (A/California/07/2009(H1N1))
Hexokinase HKDC1 = biological target: T5, Hexokinase HKDC1 (Homo sapiens, UniProt Q2TB90); assay: inhibition of HKDC1 glucose phosphorylation – biochemical, W721R variant, dose response (AID 504729); type: functional
T5 sequence (Q2TB90 whole entry): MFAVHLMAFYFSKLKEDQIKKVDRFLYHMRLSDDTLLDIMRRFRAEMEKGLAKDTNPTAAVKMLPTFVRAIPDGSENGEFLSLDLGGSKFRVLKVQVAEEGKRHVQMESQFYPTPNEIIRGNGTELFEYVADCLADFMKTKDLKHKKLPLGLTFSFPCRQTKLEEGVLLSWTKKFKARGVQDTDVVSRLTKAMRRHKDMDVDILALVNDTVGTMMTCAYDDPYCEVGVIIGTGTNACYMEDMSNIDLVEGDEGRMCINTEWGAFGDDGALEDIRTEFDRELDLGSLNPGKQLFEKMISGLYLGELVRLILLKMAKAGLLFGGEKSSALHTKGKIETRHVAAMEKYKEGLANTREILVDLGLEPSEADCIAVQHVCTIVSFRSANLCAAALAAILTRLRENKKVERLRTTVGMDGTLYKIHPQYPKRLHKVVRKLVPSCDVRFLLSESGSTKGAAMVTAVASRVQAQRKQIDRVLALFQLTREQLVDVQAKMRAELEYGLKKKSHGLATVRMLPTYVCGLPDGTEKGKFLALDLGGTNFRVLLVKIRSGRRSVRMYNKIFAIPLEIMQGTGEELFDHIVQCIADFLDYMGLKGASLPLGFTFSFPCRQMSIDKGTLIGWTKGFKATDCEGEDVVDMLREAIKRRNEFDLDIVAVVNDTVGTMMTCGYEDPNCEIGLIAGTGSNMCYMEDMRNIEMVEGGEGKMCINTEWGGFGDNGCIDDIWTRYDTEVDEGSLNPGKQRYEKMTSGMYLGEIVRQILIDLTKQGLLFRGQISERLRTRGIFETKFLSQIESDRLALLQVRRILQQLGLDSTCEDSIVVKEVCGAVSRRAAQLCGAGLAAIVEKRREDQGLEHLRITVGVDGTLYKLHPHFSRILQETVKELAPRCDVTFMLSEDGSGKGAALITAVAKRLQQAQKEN

NACHT, LRR and PYD domains-containing protein 1, sequence (Q9C000 1-1212 limits assumed): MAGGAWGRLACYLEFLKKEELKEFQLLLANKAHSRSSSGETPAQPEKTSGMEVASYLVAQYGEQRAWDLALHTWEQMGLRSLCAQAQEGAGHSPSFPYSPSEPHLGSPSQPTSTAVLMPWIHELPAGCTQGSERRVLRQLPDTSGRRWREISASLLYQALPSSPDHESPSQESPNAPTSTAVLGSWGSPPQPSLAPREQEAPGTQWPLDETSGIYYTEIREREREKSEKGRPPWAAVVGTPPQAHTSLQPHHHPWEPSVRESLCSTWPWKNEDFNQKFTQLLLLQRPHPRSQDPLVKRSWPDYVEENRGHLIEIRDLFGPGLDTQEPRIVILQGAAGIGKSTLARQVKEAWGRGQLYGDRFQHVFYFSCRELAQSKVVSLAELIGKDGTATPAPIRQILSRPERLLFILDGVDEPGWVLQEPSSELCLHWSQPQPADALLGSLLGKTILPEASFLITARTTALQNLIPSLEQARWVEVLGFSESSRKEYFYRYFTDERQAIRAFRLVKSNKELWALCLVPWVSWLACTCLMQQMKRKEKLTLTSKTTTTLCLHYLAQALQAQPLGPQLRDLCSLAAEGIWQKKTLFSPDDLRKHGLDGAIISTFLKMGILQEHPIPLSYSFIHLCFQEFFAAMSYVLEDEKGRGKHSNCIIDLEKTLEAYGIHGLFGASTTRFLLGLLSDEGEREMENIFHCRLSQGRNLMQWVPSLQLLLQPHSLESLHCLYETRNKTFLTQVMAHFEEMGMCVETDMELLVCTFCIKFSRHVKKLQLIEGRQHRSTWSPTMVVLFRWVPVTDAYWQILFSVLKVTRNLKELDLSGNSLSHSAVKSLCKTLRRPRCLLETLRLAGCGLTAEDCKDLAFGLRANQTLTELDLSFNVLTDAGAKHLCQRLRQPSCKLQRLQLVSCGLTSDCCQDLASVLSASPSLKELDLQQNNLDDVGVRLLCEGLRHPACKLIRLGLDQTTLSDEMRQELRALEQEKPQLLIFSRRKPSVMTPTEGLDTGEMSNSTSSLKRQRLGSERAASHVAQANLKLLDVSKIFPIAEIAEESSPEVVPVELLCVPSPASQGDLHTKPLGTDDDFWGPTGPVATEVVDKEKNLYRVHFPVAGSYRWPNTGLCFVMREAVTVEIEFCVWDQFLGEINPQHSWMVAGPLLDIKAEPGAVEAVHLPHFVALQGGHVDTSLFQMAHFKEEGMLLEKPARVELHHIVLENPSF
NACHT, LRR and PYD domains-containing protein 1, sequence (Q9C000 1213-1473 limits assumed): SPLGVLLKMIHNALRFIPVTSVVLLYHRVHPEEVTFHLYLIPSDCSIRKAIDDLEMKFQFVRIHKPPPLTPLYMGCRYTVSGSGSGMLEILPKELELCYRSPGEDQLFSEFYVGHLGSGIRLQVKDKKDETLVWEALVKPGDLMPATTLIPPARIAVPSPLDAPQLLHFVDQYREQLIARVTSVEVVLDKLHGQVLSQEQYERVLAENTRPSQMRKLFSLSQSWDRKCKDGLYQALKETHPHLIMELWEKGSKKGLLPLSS
Beta-galactosidase, sequence (Q8VNN2 whole entry): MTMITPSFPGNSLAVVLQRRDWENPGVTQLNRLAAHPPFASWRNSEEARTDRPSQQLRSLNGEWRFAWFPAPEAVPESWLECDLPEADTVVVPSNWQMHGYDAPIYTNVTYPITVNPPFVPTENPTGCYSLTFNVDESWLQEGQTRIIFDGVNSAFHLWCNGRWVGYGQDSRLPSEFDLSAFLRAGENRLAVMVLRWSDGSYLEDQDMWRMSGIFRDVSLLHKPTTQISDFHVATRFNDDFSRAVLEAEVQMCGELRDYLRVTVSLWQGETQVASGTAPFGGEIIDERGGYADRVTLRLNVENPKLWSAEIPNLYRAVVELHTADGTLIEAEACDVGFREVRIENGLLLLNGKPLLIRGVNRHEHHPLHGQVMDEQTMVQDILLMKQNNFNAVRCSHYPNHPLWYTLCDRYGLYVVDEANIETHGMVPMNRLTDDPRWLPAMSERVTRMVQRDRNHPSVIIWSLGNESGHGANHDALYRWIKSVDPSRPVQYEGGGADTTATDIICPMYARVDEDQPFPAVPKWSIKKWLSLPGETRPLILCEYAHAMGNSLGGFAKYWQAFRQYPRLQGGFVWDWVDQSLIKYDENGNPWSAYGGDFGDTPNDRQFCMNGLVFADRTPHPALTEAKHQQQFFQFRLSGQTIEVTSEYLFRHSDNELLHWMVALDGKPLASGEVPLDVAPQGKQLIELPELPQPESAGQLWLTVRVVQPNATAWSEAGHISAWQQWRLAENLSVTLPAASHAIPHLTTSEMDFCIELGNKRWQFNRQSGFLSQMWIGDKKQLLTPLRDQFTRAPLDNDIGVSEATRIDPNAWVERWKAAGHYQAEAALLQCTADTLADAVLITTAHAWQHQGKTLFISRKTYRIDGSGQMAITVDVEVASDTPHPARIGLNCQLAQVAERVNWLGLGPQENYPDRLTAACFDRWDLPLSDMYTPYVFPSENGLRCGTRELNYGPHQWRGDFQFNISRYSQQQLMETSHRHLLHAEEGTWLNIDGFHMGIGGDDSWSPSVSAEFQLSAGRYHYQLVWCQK
Nonstructural protein 1, sequence (Q194T2 whole entry): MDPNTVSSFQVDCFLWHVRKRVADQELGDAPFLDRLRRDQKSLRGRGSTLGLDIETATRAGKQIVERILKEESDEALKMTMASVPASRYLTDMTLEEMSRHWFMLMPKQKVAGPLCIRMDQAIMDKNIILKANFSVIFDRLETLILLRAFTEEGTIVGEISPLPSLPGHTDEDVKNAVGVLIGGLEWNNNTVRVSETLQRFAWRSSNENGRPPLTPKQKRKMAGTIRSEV
Phosphoethanolamine/phosphocholine phosphatase, sequence (Q8TCT1 whole entry): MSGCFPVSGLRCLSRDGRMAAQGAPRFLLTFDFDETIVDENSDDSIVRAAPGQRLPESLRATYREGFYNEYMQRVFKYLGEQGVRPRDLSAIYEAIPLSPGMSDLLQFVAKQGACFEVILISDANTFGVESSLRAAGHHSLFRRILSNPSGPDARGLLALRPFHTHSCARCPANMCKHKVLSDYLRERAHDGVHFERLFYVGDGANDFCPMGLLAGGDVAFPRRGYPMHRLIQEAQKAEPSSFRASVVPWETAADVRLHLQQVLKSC

For `Cc1ccc(-n2nnnc2C(Cl)c2nnnn2-c2ccc(C)cc2)cc1`, the EC50 [1] was > 160 µM (inactive), the EC50 [2] was > 60 µM (not active) and the EC50 [3] was > 38 µM (not active). For the same compound, the IC50 (Saccharomyces cerevisiae) was 6.59 µM (active), the EC50 [4] was 17.6 µM (active) and the IC50 [5] was 11 µM (active). The AC50 [6] was 0.635 µM (active), the EC50 [7] was 17.5 µM (active) and the EC50 [8] was 3.31 µM (active).

With `COC(=O)c1cccc(-n2sc3ccccc3c2=O)c1` the CC50 [9] was 100 µM (active), the IC50 [10] was 36.9 µM (active) and the IC50 (Phosphomannomutase 2) was 15.4 µM (active). For the same compound, the IC50 [11] was 14 µM (active), the IC50 [12] was 0.824 µM (active) and the IC50 [13] was > 100 µM (inactive).

In the case of `CCOC(=O)C1=C(Cc2ccc(OC)cc2)C(=O)c2ccccc2C1=O`, the IC50 (Beta-galactosidase) is reported as > 66.6 µM (inactive), the IC50 (Nonstructural protein 1) is reported as 42.9 µM (active) and the IC50 (Hexokinase HKDC1) is reported as 7.57 µM (active).
